Laboratory results from PMC3669292, “Neuroprotective Efficacy of a New Brain-Penetrating C-Abl Inhibitor in a Murine Parkinson’s Disease Model” (PLoS ONE, 2013).
One block for each molecule: values may come before it.

Experiments:
[1] = Directional permeability of drug analogues across primary BBMEC monolayers (in vitro BBB model); type: in vitro ADME, bovine; details: bovine, pH 7.4, donor 10 µM, 0–90 min, mean ± SD, n = 3; for Papp A→B at 10 µM: apical-to-basolateral, read-out: Apparent Permeability Coefficient A → B; for Papp B→A at 10 µM: basolateral-to-apical, read-out: Apparent Permeability Coefficient B → A
Description: (§1) The BBMEC were isolated by a modified method previously described. Briefly, the meninges were removed from the gray matter of fresh cow cerebral cortices and mechanically homogenized through a 100 μm mesh screen. Dispase II enzyme (5 mg/ml) reconstituted in MEM isolation media (MEM ([…]), HEPES (50 mM), polymyxin B (50 ug/ml), gentamicin (50 ug/ml) and amphotercin B (2.5 ug/ml) at pH 7.4) was added to the freshly homogenized cerebral cortical tissue (10 mg/g brain tissue) and MEM isolation media at […] was added (equal w/w of brain tissue). The mixture was placed in an incubated shaker for one hour (37°C, 150 rpm). Following this incubation, the supernatant was removed by centrifugation (10 min at 1570 rcf). […] The crude capillary pellet was collected and re-suspended in a collagenase/dispase (5 mg/ml) solution at a final concentration of 0.1% (v/w) and placed in an incubated shaker (37°C, 150 rpm) for one hour. […] The digested capillaries were centrifuged (10 min, 1700 rcf) to remove the enzymatic treatment and re-suspended in isolation media and pipetted into the percoll gradient tubes. The BBMEC cells were then separated by centrifugation (10 min at 1700 rcf). […] The BBMEC were plated (approximately 50,000 cells/cm^2 density) on collagen-coated, fibronectin-treated culture plates, and incubated in a humidified incubator (37°C with 5% (v/v) CO2). The cells were used after reaching confluence, typically 8-12 days. The concentrations of both drugs, Imatinib and INNO-406, were analyzed by a rapid HPLC separation and UV-VIS detection. […] The effluents were monitored at 223 nm and quantified using the area under the peak from standard solutions dissolved in assay II buffer (0.4 to 25 μg/ml). Assay II buffer consisted of sodium chloride (122 mM), potassium chloride (3 mM), calcium chloride (1.4 mM), magnesium sulfate (1.2 mM), sodium bicarbonate (25 mM), HEPES (10 mM), d-glucose (10 mM) and potassium phosphate (0.4 mM) at Ph of 7.4. The directional comparison of drug analogues transported in primary BBMEC monolayers was determined. These methods have been previously described, [21]. Briefly, the freshly isolated BBMEC were plated in triplicates (50,000 cells/cm^2 seeding density) on collagen-coated, fibronectin-treated polycarbonate membrane inserts, and cultured until confluence (12 mm; 0.4 μm pore size, Costar TranswellTM 12-well, Cambridge, MA). Complete culture media from confluent BBMEC monolayers was replaced 24-hours prior to the start of the experiment. The confluent monolayers were mounted in side-by-side diffusion chambers ([…]) either the apical or the basolateral sides were supplied with fresh assay II buffer with drug (donor chamber, 10 μM). Samples (100 μl) were removed from the […] compartment at various time points (0-90 min) and replaced with fresh buffer. The concentration of drug in the samples was determined spectrophotometrically by HPLC methodology reported above ([…]). The directional transport was expressed as the percent of the respective drug across the BBMEC monolayers over time (Mean ± SD, n = 3).

BBMEC monolayers = test: as above; type: in vitro ADME, bovine; details: for Apparent Permeability Ratio A → B/B→ A: mean ± SD, n = 3
Description: as §1

[2] = Brain levels of INNO-406 in C57 mice after single i.p. injection; type: in vivo; details: for Brain level of INNO-406: C57 mice
Description: For pharmacokinetic studies, INNO-406 was injected at 2.5 mg/kg/i.p. or 10 mg/kg/i.p. in C57 mice and brains were harvested 1 h, 4 h, and 24 h after a single injection. In another study, INNO-406 was injected at 2.5 mg/kg/i.p. or 10 mg/kg/i.p. in C57 mice in the presence or absence of MPTP (4×20 mg/kg/i.p. at 2 h interval) after last injection of MPTP and brains were harvested 1 h, 4 h, and 24 h after a single injection of INNO-406. Finally, brain levels of MPP+ in C57 mice were measured 1 h, 4 h, and 24 h after single injection of MPTP (60 mg/kg/i.p.) in the presence or absence of a single injection of INNO-406 (2.5 mg/kg/i.p. or 10 mg/kg/i.p.).
The concentrations of both drugs, Imatinib and INNO-406, were analyzed by a rapid HPLC separation and UV-VIS detection. Briefly, the isocratic HPLC analysis for both Imatinib and INNO-406 were achieved on a C18 Zorbax column (150×4.6 mm, 5 um) (Phenomenex, Torrance, CA) with a simple mobile phase consisting of methanol and deionized water (50∶50% v/v/) at a flow rate of 1.0 ml/min. The effluents were monitored at 223 nm and quantified using the area under the peak from standard solutions dissolved in assay II buffer (0.4 to 25 µg/ml). Assay II buffer consisted of sodium chloride (122 mM), potassium chloride (3 mM), calcium chloride (1.4 mM), magnesium sulfate (1.2 mM), sodium bicarbonate (25 mM), HEPES (10 mM), d-glucose (10 mM) and potassium phosphate (0.4 mM) at Ph of 7.4.

[3] = test system: MPTP-induced dopaminergic damage in C57BL/6 mice; test: MPTP mouse model of PD: TH+ neuron stereology, striatal TH optical density, striatal dopamine; type: in vivo
[4] = test system: c-Abl activation, parkin tyrosine phosphorylation, AIMP2 accumulation; test: Immunoprecipitation/immunoblot of striatal lysates of MPTP-treated mice; type: in vivo, C57BL/6 mice; details: 10 mg/kg i.p. daily one week before and one week after MPTP; vs MPTP alone
SH-SY5Y cells = test: Lactate dehydrogenase cytotoxicity assay, MPP+-treated cells; type: cell-based; details: 6 h pretreatment with 0.5 or 1.0 µM; MPP+ 500 µM; 24 h after exposure
Description: The release of lactate dehydrogenase for cytotoxicity was measured by LDH assay kit (Roche#11644793001). A 100 µL of the supernatant from treated cells was transferred to new 96-well plates. The plates were incubated for 30 min at room temperature on orbital shaker. A colorimetric absorbance was recorded at 490 nm with a reference wavelength of 650 nm using a micro plate reader for colorimetric detection (BioTek, USA). Each experiment was done in triplicate. Cytotoxicity is expressed in terms of percent relative to the basal lactate dehydrogenase release by untreated control cells where controls cells serve as 100 percent.
Figure 4 INNO-406 prevents dopaminergic depletion and c-Abl mediated parkin phosphorylation in mice striatum. (A) INNO-406 prevents MPTP-induced depletion of striatal dopamine and its metabolites DOPAC and HVA in adult male C57BL/J6 mice. Animals received INNO-406 (10 mg/kg, i.p.) as a single daily injection for 7 days before MPTP injection. […] The optical density quantification data as normalized amounts is presented. * Considered statistically significant from control (p<0.05). ** Considered statistically significant from MPTP (p<0.05). (C) Cytotoxicity plotted as a percentage of control as measured by LDH in SH-SY5Y cells treated with MPP^+ (500 µM). […] Differences among means were analyzed using one-way analysis of variance (ANOVA). […]

[5] = cited from earlier work
Bcr-Abl = details: preclinical studies; cited from earlier work
[6] = INNO-406 10 mg/kg i.p. without MPTP

Papp A→B at 10 µM [1]: 98 ± 6.74 ×10⁻⁶ cm/s
Papp B→A at 10 µM [1]: 94.5 ± 10.1 ×10⁻⁶ cm/s
Enhancement of apical-to-basolateral transport across BBMEC monolayers compared to Imatinib (BBMEC monolayers; apical-to-basolateral, vs Imatinib): approximately 7.5 fold
Apparent Permeability Ratio A → B/B→ A (BBMEC monolayers): 1.00±0.119
Brain level of INNO-406 ([2]; 1 h after single injection of 10 mg/kg i.p.): 50 ng
Brain level of INNO-406 ([2]; 4 h after single injection of 10 mg/kg i.p.): 80 ng
Brain level of INNO-406 ([2]; 24 h after single injection of 10 mg/kg i.p.): 65 ng
Effect of multiple MPTP injections on brain levels of INNO-406 ([2]; MPTP 4×20 mg/kg i.p. at 2 h interval, INNO-406 2.5 or 10 mg/kg i.p., 1, 4, 24 h): not altered
Compound: Cc1ccc(NC(=O)c2ccc(CN3CC[C@H](N(C)C)C3)c(C(F)(F)F)c2)cc1Nc1nccc(-c2cncnc2)n1 [INNO-406]
Loss of TH staining intensity in striatum in MPTP mice that also received INNO-406 ([3]; 10 mg/kg i.p. daily one week before and after MPTP, relative to controls, MPTP alone 70% loss): 35%
Prevention (decrease) of loss of dopamine (and DOPAC, HVA) in the striatum ([3]; 10 mg/kg i.p. daily one week before and one week after MPTP 4×20 mg/kg i.p. every 2 h): 45%
MPTP-induced loss of TH+ neurons in the SNpc in mice also treated with INNO-406 ([3]; 10 mg/kg i.p. daily one week before and one week after MPTP 4×20 mg/kg, vs saline, MPTP alone 60–65% loss): 15–20%
Organization and intensity of TH-immunoreactive neurons in SNpc, INNO-406 alone vs saline [3, 6]: essentially similar
TH immunoreactivity within the striatum, INNO-406 alone vs control [3, 6]: similar
Striatal level of AIMP2 [4]: significant decreases
Striatal level of phospho-c-Abl [4]: significant decreases
Striatal level of phospho-parkin [4]: significant decreases
MPP+-induced cytotoxicity (LDH release) (SH-SY5Y cells): prevented
Entry into brain [5]: significantly enter brain
Potency relative to Imatinib in vivo (Bcr-Abl): ≥ 10 fold

Papp A→B at 10 µM [1]: 12.96 ± 0.07 ×10⁻⁶ cm/s
Papp B→A at 10 µM [1]: 63.86 ± 0.23 ×10⁻⁶ cm/s
Apparent Permeability Ratio A → B/B→ A (BBMEC monolayers): 0.20±0.001
Compound: Cc1ccc(NC(=O)c2ccc(CN3CCN(C)CC3)cc2)cc1Nc1nccc(-c2cccnc2)n1 [Imatinib]
Brain bioavailability [5]: limited brain bioavailability
Capacity to cross blood-brain barrier [5]: minimal capacity to cross blood-brain barrier
